Test results taken from patent US10975123B2, “Mutant Akt-specific capture agents, compositions, and methods of using and making” (California Institute of Technology, priority 2014, dated 2021).
Entries after “also recorded” stand apart in the source; their conditions may differ. Where a SMILES comes first, the peptide text is derived from it. [ ]: non-standard residue; d: D form.

Tests used:
Type in all cases: binding
[1] = target: T1, E17K mutant PH Domain (PHD) of Akt1 (Homo sapiens, UniProt P31749, E17K); experiment: Streptavidin-agarose immunoprecipitation (pulldown), E17K; settings: streptavidin agarose, 1xTBS, western blot band size, in words
T1 construct: The first 124 N-terminal amino acids from full length Akt1 were used as the PH Domain DNA; made in house; host or cells: E. coli
Description: (§1) Four biligand candidates were chosen based on their hydrophobicity and sequence homology using principal component analysis (FIG. 25). Biligands were synthesized by coupling the 2° ligand onto Rink Amide Resin on the Titan peptide synthesizer. The amide group on the end of the Lys(N3) was capped by shaking the resin with 2 mL acetic anhydride, 2 mL NMP and 0.5 mL DIEA for 3×10 minutes, then washed with NMP. FMOC-Propargylglycine-Otbu (Pra) was clicked onto the Lys(N3) on the 2° ligand by incubating 2 eq of the Pra amino acid with 2 eq CuI and 2 eq ascorbic acid with 1 eq azide on resin in 20% piperidine/NMP for 3 hours. The resin was washed 5×4 mL with a chelating solution of 1 g sodium diethyldithiocarbamate in 20 mL NMP and 1 mL DIEA. The anchor was then built onto the 2° ligand on bead, and an N-terminal PEG5-biotin tag were added. Assays were performed exactly as for the anchor ligands, except for two key differences. The biligand assays were done with 6 ug of GST-tagged PHD protein, instead of the untagged PHD that was used in the anchor pulldowns. The pull-downs were also conducted out of 1% serum in 1×TBS, as opposed to just 1×TBS.
(§2) Pulldown assays were done on Streptavidin Agarose resin from Invitrogen. The resin was incubated with N-terminal biotinylated anchor peptide candidates identified via the ClusterLigand sequence analysis. The anchor candidate coated beads were then incubated with either the wildtype or mutant protein to compare the selectivity of the ligands, as well as the binding ability. The bound protein was eluted and western blotted to compare the amount of protein present for each sample.
(§3) Relative protein band sizes were analyzed to compare binding between the anchor candidates and were used to determine selectivity for either wildtype or mutant PH Domain (FIG. 11). […] Both of these ligands look fairly selective for their respective PH Domain.

[2] = target: T2, wildtype PH Domain (PHD) of Akt1 (Homo sapiens, UniProt P31749); experiment: Streptavidin-agarose immunoprecipitation (pulldown), WT; settings: streptavidin agarose, 1xTBS, western blot band size, in words
T2 construct: The first 124 N-terminal amino acids from full length Akt1 were used as the PH Domain DNA; made in house; host or cells: E. coli
Description: as §1, §2, §3

GST-Akt1(E17K) protein = target: T3, GST-Akt1(E17K) protein (Homo sapiens, UniProt P31749, E17K); experiment: Ligand-directed tosylate labeling with MALDI-TOF MS of tryptic digests; settings: yleaf with N-terminal tosylate-Cy5 (ligand 5), 10x molar excess, two days room temperature
T3 construct: 50 μL of full-length GST-E17K Akt1 from SignalChem was treated with 10× molar excess of the anchor ligand; purchased SignalChem
Text: The selectivity of the yleaf ligand was further verified using the directed labeling technique reported by Tsukiji et al^19. The approach yields information relative to the binding location of the ligand on the protein target. For this method, a payload is attached to the N-terminus of the targeting yleaf ligand through an electrophilic tosylate linker. Upon ligand binding to the protein target, the payload is transferred onto the protein through a nucleophilic SN2 reaction with proximal nucleophilic amino acid side chains (FIG. 3a). The protein can then be trypsin digested and the identity of the fragments containing the payload can be mapped on the protein surface using mass spectrometry (MS). Thus, the site of ligand binding can be estimated. […]
For the assay, yleaf was modified at the N-terminus to contain a tosylate linker attached to a Cy5 dye molecule to enable easy identification of the labeled and digested protein fragments (FIG. 2a and FIG. 16). […] The labeling of protein target was initially confirmed by visualization on a fluorescent gel reader (FIG. 3b) as well as a Western blotting visualization of an experiment in which a biotin-label was substituted for the fluorescent tag. The labeled protein and an unlabeled control were then trypsin digested from the gel and were analyzed by matrix-assisted laser desorption/ionization time-of-flight (MALDI-TOF) MS (FIGS. 18 and 19). […]

T1 sequence (P31749 1-124 E17K): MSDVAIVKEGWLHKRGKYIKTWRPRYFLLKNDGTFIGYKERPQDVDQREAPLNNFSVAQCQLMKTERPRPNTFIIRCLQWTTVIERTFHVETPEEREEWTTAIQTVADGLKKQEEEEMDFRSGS
T2 sequence (P31749 1-124): as the sequence (P31749 1-124 E17K) above, with K17E counted along it
T3 sequence (P31749 whole entry E17K): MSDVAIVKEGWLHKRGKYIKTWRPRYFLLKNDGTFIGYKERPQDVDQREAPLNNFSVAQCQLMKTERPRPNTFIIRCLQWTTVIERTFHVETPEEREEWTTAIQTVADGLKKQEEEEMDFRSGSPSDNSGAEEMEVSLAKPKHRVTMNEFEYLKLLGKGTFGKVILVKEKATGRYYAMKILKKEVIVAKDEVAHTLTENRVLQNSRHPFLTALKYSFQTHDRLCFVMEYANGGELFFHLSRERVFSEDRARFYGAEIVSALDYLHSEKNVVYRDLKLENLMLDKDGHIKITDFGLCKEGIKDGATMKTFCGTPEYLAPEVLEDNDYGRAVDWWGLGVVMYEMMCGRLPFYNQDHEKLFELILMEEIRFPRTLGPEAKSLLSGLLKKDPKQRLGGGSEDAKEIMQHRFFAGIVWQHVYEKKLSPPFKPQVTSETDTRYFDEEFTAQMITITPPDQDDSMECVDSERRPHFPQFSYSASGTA

**Q.** How did the “pulldown of E17K mutant PH Domain by biotinylated anchor candidates” value [1] turn out when `CC(C)C[C@@H](NC(=O)[C@H](N)Cc1ccc(O)cc1)C(=O)N[C@H](CCC(=O)O)C(=O)N[C@H](C)C(=O)N[C@H](Cc1ccccc1)C(N)=O` [yleaf] (H-[dY][dL][dE][dA][dF]-NH2; N-terminus assumed) was run?
**A.** Its value is “a distinctively stronger binding to the E17K protein relative to the WT; also recorded: the greatest binding to the mutant”.

**Q.** And the “pulldown of wildtype PH Domain by biotinylated anchor candidates” value [2]?
**A.** Its value is “the least binding to the wildtype”.

**Q.** And the “location of labeled sites on the protein (binding site, off-target binding)” value (GST-Akt1(E17K) protein)?
**A.** Its value is “only sites around the expected N-terminal binding site of the yleaf ligand are labeled”.
